# Positions of bridges follow the written chain, without caps; N, C: chain ends. Residues, ends and D or L forms follow the SMILES beside them.
# Legend:
# [1] = 7-day repeat dose tolerance dermal study in Gottingen Mini-Pigs (non-GLP); assay type: in vivo
# Text: The purpose of this study was to evaluate the dermal dose tolerance at the maximum feasible dose (concentration and application rate) of Compound 1 in Formulation 1, Formulation 2, or Formulation 3 of Table 2, including placebo (F1, F2, or F3 without Compound 1) when applied by topical dermal application to Gottingen Mini-Pigs twice daily for seven days.
# Three experimentally naive male Gottingen Mini-Pigs, 4-5 months old and weighing 10.6-13.8 kilograms at the outset of the study had four dose sites (100 cm^2 per site) numbered 1, 2, 3, and 4. The dose sites were not rotated.
# Animals were dosed with all formulations twice daily (two doses per site per day; 6 hours+/−30 minutes between the first and second dose for 7 days). Mortality/morbidity was performed twice daily and once on the day of scheduled euthanasia. On Days 1-7 animals were observed prior to dosing and at 1-2 hours post-dose. A final observation was recorded on Day 8 prior to scheduled euthanasia. Body weights were recorded on Days 1 and 7. Food consumption was determined daily. Blood for toxicokinetic evaluation was collected on Days 1 and 7 at 0.5, 1, 2, 4, 6, 8 and 24 hours post-dose. […] Animals were sacrificed on Day 8 and a gross necropsy was performed. The dosing area (skin) was collected and preserved.
# [2] = tested on: Phorbol Myristoyl Acetate (PMA)-induced skin inflammation; assay type: in vivo; conditions: mouse
# Text: The anti-inflammatory efficacy of Compound 1 on a Phorbol Myristoyl Acetate (PMA)-induced skin inflammatory mouse model (irritant contact dermatitis) is shown following topical application of a formulation including Compound 1 herein.
# [3] = tested on: mild to moderate atopic dermatitis; assay type: in vivo, human
# Method: 26 subjects having mild to moderate atopic dermatitis and about 3-70% treatable body surface area (BSA) were enrolled in the study. […] Dosing was targeted at 0.62 g/kg/day of the formulation or 6.82 mg/kg/day of Compound 1. Based on an average body weight of 60 kg, and average BSA of 1.62 m2, a recommended starting dose of 2.5 g of a formulation (for example, Formulation 1 or 4; Formulations 2, 3, 5, and 6 may be dosed higher due to the lower concentration of Compound 1) is proposed as a starting point. Severity of atopic dermatitis (vIGA-AD score), treatable BSA, and the following 11 signs and symptoms were assessed: dryness, erythema, burning/stinging, erosion/ulceration, edema/swelling, itching, pain treated area, crusting, vesiculation, flaking/scaling, and bleeding.
# [4] = PK/biodistribution following single topical dose: whole blood and plasma radioactivity; assay type: in vivo, male albino rats; design: Non-plasma compartment: unit not given beside the values; conditions: rat; for Concentration of radioactivity in recovered white blood cells: reverse wash of filters
# Method: Whole blood and plasma radioactivity analysis, quantitative whole-body autoradiography (QWBA), and micro-autoradiography (mARG) studies are performed following a single topical dose administration to male rats. Formulation 1, Formulation 2, or Formulation 3, where Compound 1 is 3H-Compound 1, are applied in a single topical dose at a target dose of 5 mg/kg to six male albino rats.
# An additional three male albino rats received a single topical appropriate amount of CETAPHIL (R) applied to the dose site approximately 1 hour prior to application of ^3H-Compound 1 in a single topical dose at a target dose of 5 mg/kg. An individual rat receiving the emollient pre-treatment was used for a single time-point of 2 hours, 8 hours, and 48 hours.
# [5] = at EOT or at 2-week follow-up visit
# [6] = CETAPHIL 1 hr prior to single topical 5 mg/kg, 48 h, dosing device removed by rat, potential oral administration by grooming
# [7] = CETAPHIL 1 hr prior to single topical 5 mg/kg, 48 h, dosing device removed, potential oral administration
# [8] = CETAPHIL emollient 1 hr prior to single topical 5 mg/kg, 2 h
# [9] = CETAPHIL emollient 1 hr prior to single topical 5 mg/kg, 8 h
# [10] = single topical 5 mg/kg, without CETAPHIL, 1 h
# [11] = single topical 5 mg/kg, without CETAPHIL, 1 h post-dose
# [12] = single topical 5 mg/kg, without CETAPHIL, 2 h
# [13] = single topical 5 mg/kg, without CETAPHIL, 2 h post-dose
# [14] = single topical 5 mg/kg, without CETAPHIL, 4 h
# [15] = single topical 5 mg/kg, without CETAPHIL, 4 h post-dose
# [16] = single topical 5 mg/kg, without CETAPHIL, 8 h
# [17] = single topical 5 mg/kg, without CETAPHIL, 8 h post-dose
# [18] = single topical 5 mg/kg, without CETAPHIL, 24 h
# [19] = single topical 5 mg/kg, without CETAPHIL, 24 h post-dose
# [20] = single topical 5 mg/kg, without CETAPHIL, 48 h
# [21] = single topical 5 mg/kg, without CETAPHIL, 48 h post-dose
smiles,measurement,setting,value
CSCC[C@@H]1NC(=O)[C@H](CC(C)C)NC(=O)[C@H](CCCCN)NC(=O)[C@H](CCC(N)=O)NC(=O)[C@H](CCCNC(=N)N)NC(=O)[C@H](CCCCN)NC(=O)[C@H](CCCNC(=N)N)NC(=O)[C@H](CCC(N)=O)NC(=O)[C@H](C(C)C)NC(=O)[C@@H](NC(=O)[C@@H]2CCCN2C(=O)[C@H](C)NC(=O)[C@H](CC(C)C)NC(=O)[C@H](CC(C)C)NC(=O)[C@H](C)NC(=O)[C@H](CC(C)C)NC(=O)[C@H](CC(C)C)NC(=O)[C@@H](NC(=O)[C@H](C)NC(=O)[C@@H]2CCCN2C(=O)[C@H](CC(C)C)NC(=O)[C@H](CC(C)C)NC(=O)[C@H](C)NC(=O)[C@@H](NC(=O)[C@H](C)NC(=O)[C@H](C)N)C(C)C)C(C)C)CSSC[C@@H](C(=O)O)NC(=O)[C@@H]2CCCN2C1=O [Compound 1] (H-AAVALLPAVLLALLAPCVQRKRQKLMPC-OH; disulfide 17-28),dermal tolerance,"[1]; male mini-pigs, 0, 0.11, 0.33, 1.1% w/w applied topically twice daily for 7 consecutive days",tolerated
same,no-observed-adverse-effect level (NOAEL),"[1]; male mini-pigs, highest dose tested: 0.75 grams of formulation applied twice daily for 7 days",1.1 % w/w
same,early deaths (mortality),"[1]; male mini-pigs, topical 0.11, 0.33, 1.1% w/w (F3, F2, F1), 0.75 g per site twice daily for 7 days",no early deaths
same,clinical signs or dermal effects,"[1]; male mini-pigs, topical 0.11, 0.33, 1.1% w/w, twice daily for 7 days",no clinical signs or dermal effects noted
same,dermal irritation,"[1]; minipig, in vivo",no signs of dermal irritation
same,general signs of toxicity,"[1]; minipig, in vivo",no general signs of toxicity
same,swelling and cellular infiltration in ear punch biopsies induced by PMA,[2]; 8 h post-challenge,reduced
same,skin wound healing and hair re-growth after repeated surgical trauma,[2]; in vivo,does not impede
same,inflammatory cell infiltration in skin biopsies in response to PMA,"[2]; topical formulation, dose-dependent treatment",reduced
same,ear swelling (ear thickness of intact ears) induced by PMA,[2]; topical treatment,attenuated
same,11 signs and symptoms of AD scored from patient diaries,"[3]; 1.1% as Formulation 4, BID for 7 days",net negative score
same,subjects whose vIGA-AD score worsened 2 units,[3]; at 2-week follow up,0 subjects
same,subjects whose EOT vIGA-AD score worsened 1 unit,[3]; at 2-week follow up (3 subjects),13%
same,subjects with improvement in vIGA-AD scores of 2 units,[3]; at 2-week follow up (10 subjects),44%
same,subjects with 0-clear or 1-almost clear skin,[3]; at 2-week post treatment,61%
same,subjects with improved vIGA-AD scores of 2 units,[3]; at EOT (6 subjects),26%
same,subjects with 0-clear or 1-almost clear vIGA-AD scores,[3]; at EOT (BID for 7 days),57%
same,"patients responding (reduction in treatable BSA or decrease in vIGA-AD severity score, or both)",[3]; [5],24 of 26
same,reduction in size of treatable BSA in responders,[3]; [5],20-100%
same,adverse events (AEs),[3]; in vivo,no adverse events
same,tolerability,[3]; in vivo,well tolerated
CSCC[C@@H]1NC(=O)[C@H](CC(C)C)NC(=O)[C@H](CCCCN)NC(=O)[C@H](CCC(N)=O)NC(=O)[C@H](CCCNC(=N)N)NC(=O)[C@H](CCCCN)NC(=O)[C@H](CCCNC(=N)N)NC(=O)[C@H](CCC(N)=O)NC(=O)[C@H](C(C)C)NC(=O)[C@@H](NC(=O)[C@@H]2CCCN2C(=O)[C@H](C)NC(=O)[C@H](CC(C)C)NC(=O)[C@H](CC(C)C)NC(=O)[C@H](C)NC(=O)[C@H](CC(C)C)NC(=O)[C@H](CC(C)C)NC(=O)[C@@H](NC(=O)[C@H](C)NC(=O)[C@@H]2CCCN2C(=O)[C@H](CC(C)C)NC(=O)[C@H](CC(C)C)NC(=O)[C@H](C)NC(=O)[C@@H](NC(=O)[C@H](C)NC(=O)[C@H](C)N)C(C)C)C(C)C)CSSC[C@@H](C(=O)O)NC(=O)[C@@H]2CCCN2C1=O [^3H-Compound 1] (H-AAVALLPAVLLALLAPCVQRKRQKLMPC-OH; disulfide 17-28),"Cmax, total radioactivity","[4]; Plasma, single topical 5 mg/kg",14.53 ng/mL
same,"Cmax, total radioactivity","[4]; Whole blood -WBC, single topical 5 mg/kg",11.68 ng/mL
same,"Cmax, total radioactivity","[4]; Whole blood, single topical 5 mg/kg",2.282 ng/mL
same,Blood,[4]; [6],1630 ng/mL
same,Plasma,[4]; [6],2312 ng/mL
same,Non-plasma compartment,[4]; [7],19.2
same,Partition coefficient,[4]; [7],80.8
same,WBC depleted blood,[4]; [7],303.9 ng equivalents/mL
same,Blood,[4]; [8],4.444 ng/mL
same,Non-plasma compartment,[4]; [8],26.5
same,Partition coefficient,[4]; [8],73.5
same,Plasma,[4]; [8],5.443 ng/mL
same,WBC depleted blood,[4]; [8],2.333 ng equivalents/mL
same,Blood,[4]; [9],16.05 ng/mL
same,Non-plasma compartment,[4]; [9],21.3
same,Partition coefficient,[4]; [9],78.7
same,Plasma,[4]; [9],21.04 ng/mL
same,WBC depleted blood,[4]; [9],3.223 ng equivalents/mL
same,persistence in the blood,[4]; after a single topical administration,> 48 h
same,time to penetrate the skin deep enough to reach blood vessels,"[4]; cream formulation, single topical administration",less than one hour
same,Concentration of radioactivity in recovered white blood cells,"[4]; single topical 5 mg/kg, 1 h post-dose, may not represent total white blood cells",BLQ
same,Concentration of radioactivity in recovered white blood cells,"[4]; single topical 5 mg/kg, 2 h post-dose",BLQ
same,Concentration of radioactivity in recovered white blood cells,"[4]; single topical 5 mg/kg, 4 h post-dose",BLQ
same,Concentration of radioactivity in recovered white blood cells,"[4]; single topical 5 mg/kg, 8 h post-dose",BLQ
same,Concentration of radioactivity in recovered white blood cells,"[4]; single topical 5 mg/kg, 24 h post-dose",BLQ
same,Concentration of radioactivity in recovered white blood cells,"[4]; single topical 5 mg/kg, 48 h post-dose",BLQ
same,Non-plasma compartment,[4]; [10],43.1
same,Partition coefficient,[4]; [10],56.9
same,Concentration of radioactivity in WBC depleted blood,[4]; [11],BLQ
same,Concentration of radioactivity in plasma,[4]; [11],1.764 ng equivalents/mL
same,Concentration of radioactivity in whole blood,[4]; [11],1.923 ng equivalents/mL
same,Non-plasma compartment,[4]; [12],24.9
same,Partition coefficient,[4]; [12],75.1
same,Concentration of radioactivity in WBC depleted blood,[4]; [13],BLQ
same,Concentration of radioactivity in plasma,[4]; [13],4.818 ng equivalents/mL
same,Concentration of radioactivity in whole blood,[4]; [13],3.850 ng equivalents/mL
same,Non-plasma compartment,[4]; [14],34.0
same,Partition coefficient,[4]; [14],66.0
same,Concentration of radioactivity in WBC depleted blood,[4]; [15],0.735 ng equivalents/mL
same,Concentration of radioactivity in plasma,[4]; [15],4.896 ng equivalents/mL
same,Concentration of radioactivity in whole blood,[4]; [15],4.303 ng equivalents/mL
same,Non-plasma compartment,[4]; [16],27.8
same,Partition coefficient,[4]; [16],72.2
same,Concentration of radioactivity in WBC depleted blood,[4]; [17],2.282 ng equivalents/mL
same,Concentration of radioactivity in plasma,[4]; [17],14.53 ng equivalents/mL
same,Concentration of radioactivity in whole blood,[4]; [17],11.68 ng equivalents/mL
same,Non-plasma compartment,[4]; [18],30.4
same,Partition coefficient,[4]; [18],69.6
same,Concentration of radioactivity in WBC depleted blood,[4]; [19],1.166 ng equivalents/mL
same,Concentration of radioactivity in plasma,[4]; [19],6.709 ng equivalents/mL
same,Concentration of radioactivity in whole blood,[4]; [19],5.593 ng equivalents/mL
same,Non-plasma compartment,[4]; [20],21.7
same,Partition coefficient,[4]; [20],78.3
same,Concentration of radioactivity in WBC depleted blood,[4]; [21],1.109 ng equivalents/mL
same,Concentration of radioactivity in plasma,[4]; [21],6.287 ng equivalents/mL
same,Concentration of radioactivity in whole blood,[4]; [21],4.978 ng equivalents/mL
same,partitioning among blood components,"[4]; single topical dose, WBCs versus RBCs and RBC/WBC-depleted plasma",partitions to the WBCs (white blood cells) of blood preferentially
